Values of other authors in patent publication US20050201943A1, “Magnetic resonance imaging using contrast agents bioactivated by enzymatic cleavage” (Epix Medical, Inc.,. a Delaware corporation, priority 2000, published 2005).
Residues, ends and D or L forms follow the SMILES beside them. *: point of attachment. Bz = O=C(c1ccccc1)*

Key:
[1] = target: human serum albumin (HSA) (Homo sapiens, UniProt P02768); settings: bound to HSA versus unbound in aqueous solution
TAFI = target: T1, TAFI (Homo sapiens, UniProt Q96IY4); settings: other TAFI substrate, given for comparison
T1 sequence (Q96IY4 115-423): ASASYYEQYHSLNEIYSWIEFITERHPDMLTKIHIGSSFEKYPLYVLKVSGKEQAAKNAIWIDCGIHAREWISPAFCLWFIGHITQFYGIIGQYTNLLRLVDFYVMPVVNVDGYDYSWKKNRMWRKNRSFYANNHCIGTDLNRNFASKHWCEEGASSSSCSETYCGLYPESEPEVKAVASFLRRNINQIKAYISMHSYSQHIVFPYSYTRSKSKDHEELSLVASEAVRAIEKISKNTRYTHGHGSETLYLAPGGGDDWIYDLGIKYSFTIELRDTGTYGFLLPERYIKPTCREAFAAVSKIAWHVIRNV

Chain of human serum albumin (HSA) (P02768 25-609): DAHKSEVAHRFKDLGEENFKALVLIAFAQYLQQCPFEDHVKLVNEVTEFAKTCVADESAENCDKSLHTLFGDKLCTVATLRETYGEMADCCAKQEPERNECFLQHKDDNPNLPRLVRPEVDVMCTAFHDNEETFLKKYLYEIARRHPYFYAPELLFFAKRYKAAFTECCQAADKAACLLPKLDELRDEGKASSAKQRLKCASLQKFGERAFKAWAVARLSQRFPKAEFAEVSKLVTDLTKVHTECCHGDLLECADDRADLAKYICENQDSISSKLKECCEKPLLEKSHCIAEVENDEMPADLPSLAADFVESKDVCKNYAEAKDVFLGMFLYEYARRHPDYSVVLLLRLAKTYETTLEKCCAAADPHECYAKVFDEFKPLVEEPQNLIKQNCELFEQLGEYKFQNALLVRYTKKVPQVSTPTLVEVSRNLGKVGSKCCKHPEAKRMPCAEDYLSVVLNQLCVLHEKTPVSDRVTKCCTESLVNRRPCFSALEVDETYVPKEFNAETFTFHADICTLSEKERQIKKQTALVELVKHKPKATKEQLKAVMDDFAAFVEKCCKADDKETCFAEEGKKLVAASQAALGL

increase in relaxivity of the protein-bound form compared to the unbound contrast agent [1]	Km (TAFI) [µM]	kcat (TAFI) [s⁻¹]	SMILES
seven to eight times	–	–	O=C([O-])CN(CCN(CC(=O)[O-])C[C@H](COP(=O)([O-])OC1CCC(c2ccccc2)(c2ccccc2)CC1)N(CC(=O)[O-])CC(=O)[O-])CC(=O)[O-].[Gd+3].[H+].[H+].[H+] [MS-325]
–	140	21	N=C(N)NCCC[C@H](NC(=O)CNC(=O)c1ccccc1)C(=O)O [hippuryl arginine] (Bz-Gly-Arg-OH)
